From patent US20230014226A1, “NEW COMPOUNDS AND METHODS” (BenevolentAI Bio Limited, priority 2019, published 2023)
Read-outs that look alike come from different tables or passages of the source.

Legend:
[1] = tested on: SC-hCMs (stem cell cardiomyocytes); assay: Cardiomyocyte assay (CRL), iPSC cardiomyocytes; assay type: cell-based, human; conditions: for effect on sodium spike amplitude vs. control (given as reduction for nilotinib and Example 39): 10 μM after 48 hours; for ΔΔ Na Spike Amp at 10 μM, 48 h (%): corrected by time matched controls
Description: All measurements were performed at physiological temperature in a tissue culture incubator (37° C.; 5% CO2). Test article, positive controls and vehicle were added in a sterile tissue culture hood.
At least 10 h before compound addition SC-hCMs were exposed to the fresh culture medium. Before compound addition a one-minute recording of field potentials and impedance signals (baseline) was obtained. Test articles, vehicle and positive controls were added as a 2× concentration. One-minute recordings were obtained 0.5, 1, 2, 24 and 48 h after test article addition.
At the time of drug application, culture medium was added to an independent 96 well plate that was incubated in a tissue culture incubator for 48 h. This culture medium was used as the blank of the cTnI release assay.
After the 48 h exposure recording, 150 μL of each well was centrifuged to remove debris. The supernatant was collected and frozen for later cTnI content analysis using an ELISA plate according the manufacturer's instructions (Abcam, cat #ab200016).
Data was stored on the Charles River Laboratories computer network for off-line analysis. Data acquisition was performed using RTCA Cardio Software.
Data analysis was performed using RTCA Cardio Software, Microsoft Excel and Matlab scripts. Data were reported as mean±SEM.
The following field potential parameters were quantitated: Sodium Spike amplitude, Sodium Spike Rate, field potential duration (FPD), Bazett corrected field potential duration (FPDcB), and dysrhythmic events if present.
The following impedance parameters were quantitated: Cell Index, peak amplitude, relaxation from peak to 50% amplitude (Rel50) and twitch duration.
The sodium spike is the voltage signal produced by the propagation of the depolarizing wave (positive peak) and the local activation of sodium channels (negative peak). The sodium spike amplitude is the voltage difference (in […]) between the positive and negative peaks of the sodium spike. The Sodium Spike Rate is a measure of the rate of sodium spike generation (spikes/min) produced by the spontaneous beating of stem cell cardiomyocytes.
Abnormal rhythm activity was characterized by the presence of the following proarrhythmic markers:
Triggered activity: Triggered activity (TA) is activity characterized by the presence of voltage oscillations during the repolarization period (Early After Depolarizations, EADs) or after the repolarization is completed (Delayed After Depolarizations, DADs). They are produced by different mechanisms. EADs are due to reactivation of sodium and calcium currents due to prolongation of the action potential. DADs are due to transient releases of calcium from intracellular calcium stores. Both EADs and DADs can trigger action potentials (ectopic beats, EB).
Impedance instability: Impedance instability (II) consist of small oscillations of the impedance signal during the slower relaxation phase of the impedance twitch sometimes associated with small oscillations of the field potential (FPO). […] II informs about the possibility of drug-induced delayed repolarization setting the background where more robust proarrhythmic markers like EADs and DADs occur.
The SEM of the difference was calculated according to the following equation ΔΔSEM=(SEMtreatment2+SEMcontrol2)0.5.
The statistical analysis includes 1) a Student paired t-test to evaluate the changes respect to baseline and, 2) a multi-comparison analysis (Dunnett's test) of A % changes respect to time matched controls. An alpha probability of 0.05 was considered significant.

[2] = target: T1, recombinant human P450 enzyme 1A1 (Homo sapiens, UniProt P04798); assay: Formation of reactive metabolites (glutathione adduct) by CYP1A1 with human liver cytosol; assay type: in vitro ADME; conditions: 50 μM, human liver cytosol + recombinant CYP1A1, NADPH and GSH, 60 min
T1 construct: host or cells: Bacterial membranes (bactosomes), inferred from the named control preparation
T1 sequence (P04798 1-512): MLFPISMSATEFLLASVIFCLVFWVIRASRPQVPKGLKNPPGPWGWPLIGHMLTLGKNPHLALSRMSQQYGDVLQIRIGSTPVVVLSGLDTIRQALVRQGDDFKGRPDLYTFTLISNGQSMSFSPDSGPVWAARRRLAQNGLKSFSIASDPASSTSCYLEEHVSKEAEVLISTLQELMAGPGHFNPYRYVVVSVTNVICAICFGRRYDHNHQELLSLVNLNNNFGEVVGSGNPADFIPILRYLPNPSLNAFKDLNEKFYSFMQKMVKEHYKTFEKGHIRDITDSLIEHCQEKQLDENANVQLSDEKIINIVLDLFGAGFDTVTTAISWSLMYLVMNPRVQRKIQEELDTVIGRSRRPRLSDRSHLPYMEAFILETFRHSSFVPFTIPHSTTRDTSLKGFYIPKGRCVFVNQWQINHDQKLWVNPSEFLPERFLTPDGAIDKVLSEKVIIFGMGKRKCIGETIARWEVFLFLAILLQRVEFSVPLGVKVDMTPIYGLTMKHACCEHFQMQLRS
Description: Investigations into the potential for test compound to form a reactive metabolite were performed using an adapted method detailed by De Lin et al. Briefly, test compound was pre-incubated (n=2; 50 μM substrate concentration) at 37° C. for 5 min with mixed-gender human liver cytosol (1 mg/mL total protein concentration) in 100 mM phosphate buffer (pH 7.4) with 5 mM MgCl2 in the presence of recombinant human P450 enzyme 1A1 (100 nM), in the presence and absence of 5 mM glutathione. At the end of the pre-incubation period, 2 mM NADPH was added to each sample and the mixture incubated at 37° C. for 60 min. Immediately following the addition of NADPH and after the 60 min incubation period, aliquots of each sample were mixed with MeCN (containing internal standard) to terminate the reaction and precipitate the proteins.
Samples were mixed, centrifuged and following appropriate dilution, supernatants were analysed by LC-MS utilising a high-resolution mass spectrometer to perform metabolite identification and characterisation analysis.

[3] = tested on: HUVEC; assay: HUVEC Cell Viability (CV) assay; assay type: cell-based, human; conditions: for IC50: Homo sapiens, alamarBlue
Description: Cells are seeded at 10,000 cells/well in 96-well plates in HUVEC specific cell culture media. Cells are plated and cultured overnight (16-24 h) at 37° C. After the overnight culture, cells are washed and fed with the Assay Medium. Test compounds are applied and incubated with the cells for the designated time period, after which the cell viability is measured by alamarBlue method. […] The final DMSO concentration is 1%.
Fluorescence readings are recorded after the test compound and alamarBlue incubation. The excitation and emission wavelengths are 530 nm and 590 nm, respectively.
The percent of control is calculated by comparing the readings in the presence of the test compound to the vehicle control. Subsequently, the percent inhibition is calculated by subtracting the percent control activity from 100. IC50 values (concentration causing a half-maximal inhibition of the control value) are determined by non-linear regression analysis of the concentration-response curves using the Hill equation.
The reference compound used for this assay is Staurosporine.

[4] = tested on: HUVEC (human umbilical venous endothelial cells); conditions: HUVEC tube formation reference; read-out: expected GI50 of reference compound; cited from earlier work
[5] = tested on: HUVEC (human umbilical venous endothelial cells); assay: HUVEC Tube Formation assay; assay type: cell-based; conditions: 18 h incubation, read-out: Tube formation GI50
Description: HUVEC (human umbilical venous endothelial cells, 1.5×10^4/well, ATCC CRL-1730) are placed in an earlier prepared 96-well plate. Test substance and/or vehicle is then added to each well in a final concentration of 0.4% DMSO in growth medium under an atmosphere of 5% CO2 at 37° C. After an 18 h incubation period, morphology of the endothelial cell tubes, which resemble a capillary-like network, are evaluated by a confocal high-content imaging system. Disruption (anti-angiogenesis) of total tube length is measured from each photograph and determined relative to the vehicle control group. […] Compounds are screened at 30, 3, 0.3, 0.03 and 0.003 μM (or μg/mL) in triplicate.

[6] = target: hERG ion channel (Homo sapiens, UniProt Q12809); assay: hERG QPatch automated patch clamp; assay type: cell-based; conditions: CHO cells stably expressing hERG, QPatch 48, tail current
Description: hERG IC50 data was supplied by Metrion using their standard assay protocol briefly detailed below.
hERG ion channel screening was assayed in CHO cells stably expressing the human ether-á-go-go related gene, using the QPatch 48 automated, chip-based planar patch clamp device. A Gigaohm seal between the cell membrane and treated silicon surface was obtained and specific external and internal buffered solutions applied to cells prior to recording. Following baseline vehicle treatment, compounds were applied in increasing concentrations (8 pt CRC), effects on hERG tail current amplitudes were measured in two-minute recordings.

hERG ion channel, sequence (Q12809 whole entry): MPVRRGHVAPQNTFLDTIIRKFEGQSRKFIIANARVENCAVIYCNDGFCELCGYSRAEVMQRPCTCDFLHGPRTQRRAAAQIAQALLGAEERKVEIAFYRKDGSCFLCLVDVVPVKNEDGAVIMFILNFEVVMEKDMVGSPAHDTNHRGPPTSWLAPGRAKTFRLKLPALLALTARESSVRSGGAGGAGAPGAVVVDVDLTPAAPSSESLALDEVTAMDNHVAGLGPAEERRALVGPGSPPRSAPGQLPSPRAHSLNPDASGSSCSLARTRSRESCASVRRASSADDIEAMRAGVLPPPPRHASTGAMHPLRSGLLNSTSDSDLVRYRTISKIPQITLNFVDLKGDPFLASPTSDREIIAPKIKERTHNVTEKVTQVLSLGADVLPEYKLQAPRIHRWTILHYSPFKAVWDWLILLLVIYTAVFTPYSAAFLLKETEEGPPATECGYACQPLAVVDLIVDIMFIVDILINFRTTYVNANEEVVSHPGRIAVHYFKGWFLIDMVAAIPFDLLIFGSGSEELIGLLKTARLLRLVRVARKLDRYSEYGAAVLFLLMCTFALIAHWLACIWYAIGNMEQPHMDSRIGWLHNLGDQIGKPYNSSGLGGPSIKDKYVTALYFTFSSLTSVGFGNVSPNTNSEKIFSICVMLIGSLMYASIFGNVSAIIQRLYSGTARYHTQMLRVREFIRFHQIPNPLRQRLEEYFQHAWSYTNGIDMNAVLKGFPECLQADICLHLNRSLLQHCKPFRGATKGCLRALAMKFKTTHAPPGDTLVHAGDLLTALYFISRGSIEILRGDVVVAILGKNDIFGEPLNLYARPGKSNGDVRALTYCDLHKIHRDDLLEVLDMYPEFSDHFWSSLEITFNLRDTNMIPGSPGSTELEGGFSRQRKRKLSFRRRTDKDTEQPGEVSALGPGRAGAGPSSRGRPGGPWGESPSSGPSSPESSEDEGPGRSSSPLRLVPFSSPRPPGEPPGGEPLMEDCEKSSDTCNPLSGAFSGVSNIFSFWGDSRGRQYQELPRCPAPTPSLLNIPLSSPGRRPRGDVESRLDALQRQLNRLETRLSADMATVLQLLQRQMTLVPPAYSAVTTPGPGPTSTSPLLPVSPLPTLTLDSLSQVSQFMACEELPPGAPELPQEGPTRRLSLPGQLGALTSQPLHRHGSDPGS

effect on sodium spike amplitude vs. control (given as reduction for nilotinib and Example 39) [1] [%]	ΔΔ Na Spike Amp at 10 μM, 48 h (%) [1] [%]	SMILES	cTnI release / secretion ([1]; 10 μM (48 h), relative to vehicle)	formation of direct glutathione adduct [2]	formation of direct glutathione adduct ([2]; listed as ponatinib)	effect on cell viability compared to the compounds of the invention [3] [fold]	GI50 [4] [µM]	Proarrhythmic Markers at 10 μM, 48 h [1]	GI50 [5] [µM]	IC50 [6] [µM]	IC50 [3] [µM]
		Cc1ccc(C(=O)Nc2ccc(CN3CCN(C)CC3)c(C(F)(F)F)c2)cc1C#Cc1cnc2cccnn12 [Ponatinib, reference compound]	increased troponin (cTnI) secretion	forms a glutathione adduct	forms a significant direct glutathione adduct	~10					
		Cc1ccc(C(=O)Nc2ccc(S(=O)(=O)O)c3cc(S(=O)(=O)O)cc(S(=O)(=O)O)c23)cc1NC(=O)c1cccc(NC(=O)Nc2cccc(C(=O)Nc3cc(C(=O)Nc4ccc(S(=O)(=O)O)c5cc(S(=O)(=O)O)cc(S(=O)(=O)O)c45)ccc3C)c2)c1 [Suramin]					15				
43	−43.3	Cc1ccc(C(=O)Nc2cn3c(n2)COCC3(C)C)cc1C#Cc1cccnc1 [Example 39, N-(5,5-dimethyl-6,8-dihydroimidazo[2,1-c][1,4]oxazin-2-yl)-4-methyl-3-[2-(3-pyridyl)ethynyl]benzamide]						Not Observed	> 30	> 10	21
2.2	2.20	Cc1ccc(C(=O)Nc2cc3n(n2)CCCC3(F)F)cc1C#Cc1cccnc1 [Example 97, N-(4,4-difluoro-6,7-dihydro-5H-pyrazolo[1,5-a]pyridin-2-yl)-4-methyl-3-[2-(3-pyridyl)ethynyl]benzamide]						Not Observed	> 10	> 10	3.6
